Experimental data as given in patent US8088776B2 (Eli Lilly and Company, priority 2006, dated 2012).

How the values were obtained:
[1] = molecular target: recombinant human 11β-HSD type 1 enzyme (Homo sapiens, UniProt P28845); experiment: 11β-HSD Type 1 Enzyme Assay (NADPH fluorescence); assay type: biochemical; conditions: three hour incubation, read-out: Human 11-βHSD1 IC50
Description: 11β-HSD Type 1 Enzyme Assay
Human 11β-HSD type 1 activity is measured by assaying NADPH production by fluorescence assay. Solid compounds are dissolved in DMSO to a concentration of 10 mM. Twenty microliters of each are then transferred to a column of a 96-well polypropylene Nunc plate where they are further diluted 50-fold followed by subsequent two-fold titration, ten times across the plate with additional DMSO using a Tecan Genesis 200 automated system. Plates are then transferred to a Tecan Freedom 200 system with an attached Tecan Temo 96-well head and an Ultra 384 plate reader. Reagents are supplied in 96-well polypropylene Nunc plates and are dispensed individually into black 96-well Molecular Devices High Efficiency assay plates (40 μL/well capacity) in the following fashion: 9 μL/well of substrate (2.22 mM NADP, 55.5 μM Cortisol, 10 mM Tris, 0.25% Prionex, 0.1% Triton X100), 3 μL/well of water to compound wells or 3 μL to control and standard wells, 6 μL/well recombinant human 11β-HSD type 1 enzyme, 2 μL/well of compound dilutions. […] Final DMSO concentration is 0.5% for all compounds, controls and standards. […] Plates are then shaken once more for 15 seconds then placed into an Ultra 384 microplate reader (355EX/460EM) for detection of NADPH fluorescence.

[2] = test system: cortisone to cortisol conversion (11β-HSD1) in male C57BL/6 mice; experiment: Acute In Vivo Cortisone Conversion Assay; conditions: oral dose of 10 mg/kg, cortisone challenge 16 hours post dose, serum cortisol
Description: Acute In Vivo Cortisone Conversion Assay
In general, compounds are dosed orally into mice, the mice are challenged with a subcutaneous injection of cortisone at a set timepoint after compound injection, and the blood of each animal is collected some time later. Separated serum is then isolated and analyzed for levels of cortisone and cortisol by LC-MS/MS, followed by calculation of mean cortisol and percent inhibition of each dosing group. Specifically, male C57BL/6 mice are obtained from Harlan Sprague Dawley at average weight of 25 grams. Exact weights are taken upon arrival and the mice randomized into groups of similar weights. Compounds are prepared in 1% w-w HEC, 0.25% w-w polysorbate 80, 0.05% w-w Dow Corning antifoam #1510-US at various doses based on assumed average weight of 25 grams. Compounds are dosed orally, 200 μl per animal, followed by a subcutaneous dose, 200 μl per animal, of 30 mg/kg cortisone at 1 to 24 hours post compound dose. At 10 minutes post cortisone challenge, each animal is euthanized for 1 minute in a CO2 chamber, followed by blood collection via cardiac puncture into serum separator tubes. Once fully clotted, tubes are spun at 2500×g, 4° C. for 15 minutes, the serum transferred to wells of 96-well plates (Corning Inc, Costar #4410, cluster tubes, 1.2 ml, polypropylene), and the plates are frozen at −20° C. until analysis by LC-MS/MS. […]

[3] = molecular target: T1, 11β-HSD1 in primary human aortic smooth muscle cells (AoSMC) (Homo sapiens, UniProt P28845); experiment: Human Aortic Smooth Muscle Cell Assay (cortisone to cortisol conversion); assay type: cell-based; conditions: AoSMC induced with hTNFα; cortisol by time resolved immunoassay
T1 construct: containing 12 ng/mL hTNFα to induce expression of 11β-HSD1; endogenous in cells; host or cells: primary human aortic smooth muscle cells (AoSMC), induced with hTNFα
Description: Human Aortic Smooth Muscle Cell Assay
Primary human aortic smooth muscle cells (AoSMC) are cultured in 5% FBS growth medium to a passage number of 6, then pelleted by centrifugation and resuspended at a density of 9×10^4 cells/mL in 0.5% FBS assay medium containing 12 ng/mL hTNFα to induce expression of 11β-HSD1. Cells are seeded into 96-well tissue culture assay plates at 100 μL/well (9×10^3 cells/well) and incubated for 48 hours at 37° C., 5% CO2. Following induction, cells are incubated for 4 hours at 37° C., 5% CO2 in assay medium containing test compounds then treated with 10 μL/well of 10 μM cortisone solubilized in assay medium, and incubated for 16 hours at 37° C., 5% CO2. Medium from each well is transferred to a plate for subsequent analysis of cortisol using a competitive fluorescence resonance time resolved immunoassay. In solution, an allophycocyanin (APC)-cortisol conjugate and free cortisol analyte compete for binding to a mouse anti-cortisol antibody/Europium (Eu)-anti mouse IgG complex. Higher levels of free cortisol result in diminishing energy transfer from the Europium-IgG to the APC-cortisol complex resulting in less APC fluorescence. Fluorescent intensities for Europium and APC are measured using a LJL Analyst AD. Europium and APC excitation is measured using 360 nm excitation and 615 nm and 650 nm emission filters respectively. Time resolved parameters for Europuium were 1000 μs integration time with a 200 μs delay. APC parameters are set at 150 μs integration time with a 50 μs delay. Fluorescent intensities measured for APC are modified by dividing by the Eu fluorescence (APC/Eu). This ratio is then used to determine the unknown cortisol concentration by interpolation using a cortisol standard curve fitted with a 4-parameter logistic equation. These concentrations are then used to determine compound activity by plotting concentration versus % inhibition, fitting with a 4-parameter curve and reporting the IC50.

T1 sequence (P28845 whole entry): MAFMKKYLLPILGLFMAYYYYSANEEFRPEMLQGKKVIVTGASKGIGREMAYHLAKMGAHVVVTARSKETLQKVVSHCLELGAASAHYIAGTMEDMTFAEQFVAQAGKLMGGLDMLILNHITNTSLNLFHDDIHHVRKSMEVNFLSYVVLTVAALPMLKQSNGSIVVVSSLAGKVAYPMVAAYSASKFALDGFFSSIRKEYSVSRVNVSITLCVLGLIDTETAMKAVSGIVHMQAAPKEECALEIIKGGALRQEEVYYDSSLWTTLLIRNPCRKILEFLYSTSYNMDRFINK
Chain of recombinant human 11β-HSD type 1 enzyme (P28845 whole entry): as above

IC50 [3]	Structure (SMILES)	IC50 [1]	% Inhibition after 16 hours (dose of 10 (mg/kg)) [2]
11.4 nM	O=C(c1ccc(-c2cc(Cl)c(CC3CCN(C4CCCCC4)C3=O)c(Cl)c2)cc1)N1CCNCC1 (stereo not shown) [Example 49, 1-cyclohexyl-3-[3,5-dichloro-4′-(piperazine-1-carbonyl)-biphenyl-4-ylmethyl]-pyrrolidin-2-one]	–	–
6 nM	O=C(c1ccc(-c2cc(Cl)c(CC3CCN([C@H]4CC[C@@H](O)CC4)C3=O)c(Cl)c2)cc1)N1CCS(=O)(=O)CC1 (stereo partly drawn) [Example 74, 3-[3,5-Dichloro-4′-(1,1-dioxo-1-lambda*6*-thiomorpholine-4-carbonyl)-biphenyl-4-ylmethyl]-cis-1-(4-hydroxy-cyclohexyl)-pyrrolidin-2-one]	–	–
72.8 nM	O=C(c1ccc(-c2cc(Cl)c(C[C@@H]3CCN(C4CCOCC4)C3=O)c(Cl)c2)cc1)N1CCS(=O)(=O)CC1 [Example 99, (R)-3-[3,5-Dichloro-4′-(1,1-dioxo-116-thiomorpholine-4-carbonyl)-biphenyl-4-ylmethyl]-1-(tetrahydro-pyran-4-yl)-pyrrolidin-2-one]	–	–

Second part, the compound before the results:

Structure (SMILES)	IC50 [3]	IC50 [1]	% Inhibition after 16 hours (dose of 10 (mg/kg)) [2]
O=C(c1ccc(-c2cc(Cl)c(CC3CCN(C4CCCCC4)C3=O)c(Cl)c2)cc1)N1CCN(CCF)CC1 (single isomer, unassigned) [Example 62, 1-cyclohexyl-3-{3,5-dichloro-4′-[4-(2-fluoro-ethyl)-piperazine-1-carbonyl]-biphenyl-4-ylmethyl}-pyrrolidin-2-one]	–	115 nM	85%
O=C(c1ccc(-c2cc(Cl)c(CC3CCN(C4CCCCC4)C3=O)c(Cl)c2)cc1)N1CCOCC1 (stereo not shown) [Example 4, 1-Cyclohexyl-3-[3,5-dichloro-4′-(morpholine-4-carbonyl)-biphenyl-4-ylmethyl]-pyrrolidin-2-one]	4.3 nM	–	–
COCCN(CCOC)C(=O)c1ccc(-c2cc(Cl)c(CC3CCN(C4CCCCC4)C3=O)c(Cl)c2)cc1 (stereo not shown) [Example 5]	6.4 nM	–	–
O=C(c1ccc(-c2cc(Cl)c(C[C@@H]3CCN(C4CC=CCC4)C3=O)c(Cl)c2)cc1)N1CCC(C(F)(F)F)CC1 (stereo partly drawn) [Example 92, (R)-1-cyclohex-3-enyl-3-[3,5-dichloro-4′-(4-trifluoromethyl-piperidine-1-carbonyl)-biphenyl-4-ylmethyl]-pyrrolidin-2-one]	36.8 nM	633 nM	–
O=C(c1ccc(-c2cc(Cl)c(C[C@@H]3CCN(C4CCOCC4)C3=O)c(Cl)c2)cc1)N1CCC(C(F)(F)F)CC1 [Example 95, (R)-3-[3,5-dichloro-4′-(4-trifluoromethyl-piperidine-1-carbonyl)-biphenyl-4-ylmethyl]-1-(tetrahydro-pyran-4-yl)-pyrrolidin-2-one]	–	–	80%
